Data from patent US9266867B2, “Piperidinyl monocarboxylic acids as S1P1 receptor agonists” (BIOPROJET, priority 2011, dated 2016).
Counter-ions that a name gives are not always drawn. Like-named read-outs stand apart in the source and are kept apart here. Blank lines part the entries; values can stand above or below the compound they belong to.

Columns and labels:
circulating lymphocytes [1] = experiment: In vivo lymphopenia ED50 in mice; settings: Mus musculus, Lymphocyte, read-out: ED50 (EDG1) (In mice)
Experimental: (§1) b) Assessment of Lymphopenia
(§2) Lymphopenia was assessed in vivo. Experiments were done in non-fasted/fasted Swiss mice and/or: Sprague Dawley rats, Wistar rats, Beagle dogs, Cynomolgus monkeys. Compounds were administered orally in suspension in carboxymethyl-cellulose 0.5-1% in water (W/V). Blood was taken on anesthetized/non anaesthetized animal (4% isoflurane) and samples collected in EDTA-containing vacuum tubes from 1 h 30 to 72 hours post administration for lymphopenia measurement.
(§3) After 10 minutes stirring, cells were counted using ABC Vet haemocytometer (Scil vet animal Care) for rodent and dog or ADVIA 120 hematology analyzer for monkeys. Pharmacodynamic effect was measured by the decrease in circulating lymphocytes by test item treatment in comparison with haematological parameters of control animals or versus predosing in the same animals.

EDG1 = experiment: In vivo activity versus counterpart of WO 2007/132307; settings: at 1 mg/kg
Source text: The compounds of the invention show a better in vivo activity profile over their corresponding counterparts of WO 2007/132307, as evidenced below: […]

circulating lymphocytes [2] = experiment: Assessment of lymphopenia in rats; type: in vivo; settings: 0.3 mpk, 24 hrs
Experimental: as §1, §2, §3

hERG channel = hERG channel (Homo sapiens, UniProt Q12809); experiment: biochemical
Experimental: c) Evaluation of Activity for hERG Blockade Liability
HEK293 cells were stably transfected with the human hERG receptor gene. Binding assays were performed using 5 μg of cell membranes expressing hERG channel resuspended in 10 mM Hepes pH 7.4, 135 mM NaCl, 60 mM DL-Aspartic Acid Potassium, 1 mM EGTA, 0.8 mM MgCl2, 10 mM (D+) Glucose, 0.01% BSA, in a final volume of 200 μL. For [^3H] […] Non specific binding was estimated in the presence of 1 μM Astemizole. The reaction was terminated by filtration through Durapore BV 1.2 μm filters pre-soaked in 3% polyethyleneimine 10 minutes at room temperature. Filters were rinsed 2 times with 250 μL of ice cold 25 mM Tris-HCl pH 7.4 buffer. The filter-bound radioactivity was measured in a liquid scintillation counter with 50 μL of scintillation fluid. [^3H]
The hERG binding investigated by use of [^3H]

EDG5 = EDG5 (Homo sapiens, UniProt O95136); experiment: 35S-GTPγS binding assay, EDG5 (S1P2); type: biochemical; settings: Table 1a
Experimental: (§4) a) 35S-GTPγS Binding Assay GTP-γ-^35S binding was performed using […]15 μg protein of cell membranes suspended in 50 mM tris-HCl pH 7.5 containing 10 mM MgCl2, 100 mM NaCl and 10 μM GDP. The radioligand was 0.025 nM [^35S] GTP-γ-S and non specific binding determined in the presence of 10 μM non-radioactive GTP-γ-S. […] The maximal stimulation elicited by S1P was taken as a reference to define full or partial agonism and calculate the intrinsic activity (i.a.) of compounds.

EDG3 = EDG3 (Homo sapiens, UniProt Q99500); experiment: 35S-GTPγS binding assay, EDG3 (S1P3); type: biochemical; settings: Table 1a
Experimental: as §4

[3] = Pharmacokinetic parameters in Swiss mice after oral administration; settings: mouse, in vivo, 1 mg/kg p.o.; for Cmax: n = 4; for AUC(0-t): n = 4, read-out: AUC(0-48 h)
Source text: Moreover, preferred compounds of the present invention also display an outstanding bioavailability.

EDG-1 [4] = biological target: T1, EDG-1 (Homo sapiens, UniProt P21453); experiment: 35S-GTPγS binding assay, EDG1 (S1P1); type: biochemical; parameters: expressed in transfected cells
In short: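 Cell membranes (~15 μg protein) in 50 mM tris-HCl pH 7.5, 10 mM MgCl2, 100 mM NaCl, 10 μM GDP with 0.025 nM [35S]GTP-γ-S; nonspecific binding defined by 10 μM unlabelled GTP-γ-S. Intrinsic activity expressed relative to maximal S1P stimulation (full/partial agonism).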

EDG-1 [5] = biological target: T1, EDG-1; experiment: [3H]dihydroS1P binding assay on HEK293-EDG-1 cell membranes; parameters: expressed in transfected cells; host or cells: HEK293; settings: transfected HEK293 cells; read-out: IC50, competition with [3H]dihydroS1P
Source text: Furthermore, we settled a binding assay on HEK293-EDG-1 cells on these membranes using [3H]dihydroS1P. By Scatchard analysis we identified one binding site for [3H]dihydroS1P. Both S1P and dihydroS1P (an S1P biometabolite) compete with [3H]dihydroS1P on transfected HEK293 cells with an 1050 closed to 5± nM and a maximum binding capacity Bmax of […] of protein.

[6] = Table 1a, read-out: EC50 (nM) EDG1

Sequence of hERG channel (Q12809 whole entry): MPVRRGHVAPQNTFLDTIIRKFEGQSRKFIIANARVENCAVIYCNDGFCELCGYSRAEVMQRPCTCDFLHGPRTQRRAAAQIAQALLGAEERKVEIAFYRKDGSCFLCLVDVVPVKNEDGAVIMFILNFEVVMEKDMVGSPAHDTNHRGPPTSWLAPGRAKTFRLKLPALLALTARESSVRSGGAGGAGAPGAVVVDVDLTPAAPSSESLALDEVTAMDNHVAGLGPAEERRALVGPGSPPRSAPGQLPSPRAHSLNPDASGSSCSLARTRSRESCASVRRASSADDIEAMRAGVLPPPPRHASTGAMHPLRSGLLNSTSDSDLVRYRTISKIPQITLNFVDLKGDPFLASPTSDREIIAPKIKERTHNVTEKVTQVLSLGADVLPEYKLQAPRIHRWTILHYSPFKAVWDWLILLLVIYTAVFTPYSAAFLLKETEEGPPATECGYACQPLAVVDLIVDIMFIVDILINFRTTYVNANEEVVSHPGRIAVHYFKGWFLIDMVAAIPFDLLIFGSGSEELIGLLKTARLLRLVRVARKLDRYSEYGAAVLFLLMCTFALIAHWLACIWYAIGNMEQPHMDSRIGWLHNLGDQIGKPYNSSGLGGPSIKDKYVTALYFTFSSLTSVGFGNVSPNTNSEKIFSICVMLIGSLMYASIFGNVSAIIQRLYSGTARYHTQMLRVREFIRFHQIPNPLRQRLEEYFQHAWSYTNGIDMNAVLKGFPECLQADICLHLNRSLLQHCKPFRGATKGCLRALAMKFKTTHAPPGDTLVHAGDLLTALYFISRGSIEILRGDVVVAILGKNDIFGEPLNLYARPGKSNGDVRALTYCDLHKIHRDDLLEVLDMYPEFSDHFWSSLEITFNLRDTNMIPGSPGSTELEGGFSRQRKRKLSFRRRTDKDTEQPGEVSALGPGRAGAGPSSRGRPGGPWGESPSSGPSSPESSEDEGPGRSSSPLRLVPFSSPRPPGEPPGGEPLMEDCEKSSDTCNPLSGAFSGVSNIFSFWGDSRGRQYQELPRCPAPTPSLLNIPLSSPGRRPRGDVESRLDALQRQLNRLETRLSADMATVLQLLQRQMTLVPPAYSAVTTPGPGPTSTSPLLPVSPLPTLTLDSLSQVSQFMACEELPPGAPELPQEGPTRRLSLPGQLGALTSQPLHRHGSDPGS
Sequence of EDG3 (Q99500 whole entry, species assumed): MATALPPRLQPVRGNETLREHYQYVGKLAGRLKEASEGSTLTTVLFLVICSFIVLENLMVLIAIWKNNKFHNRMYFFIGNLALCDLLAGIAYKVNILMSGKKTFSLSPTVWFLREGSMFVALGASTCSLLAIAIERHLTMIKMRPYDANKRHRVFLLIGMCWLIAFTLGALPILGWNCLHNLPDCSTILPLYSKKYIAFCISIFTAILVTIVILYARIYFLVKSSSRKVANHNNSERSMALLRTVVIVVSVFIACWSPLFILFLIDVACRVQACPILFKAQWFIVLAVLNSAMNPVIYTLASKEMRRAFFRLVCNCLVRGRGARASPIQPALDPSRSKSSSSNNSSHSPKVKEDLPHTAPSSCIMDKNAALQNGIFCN
T1 sequence (P21453 whole entry): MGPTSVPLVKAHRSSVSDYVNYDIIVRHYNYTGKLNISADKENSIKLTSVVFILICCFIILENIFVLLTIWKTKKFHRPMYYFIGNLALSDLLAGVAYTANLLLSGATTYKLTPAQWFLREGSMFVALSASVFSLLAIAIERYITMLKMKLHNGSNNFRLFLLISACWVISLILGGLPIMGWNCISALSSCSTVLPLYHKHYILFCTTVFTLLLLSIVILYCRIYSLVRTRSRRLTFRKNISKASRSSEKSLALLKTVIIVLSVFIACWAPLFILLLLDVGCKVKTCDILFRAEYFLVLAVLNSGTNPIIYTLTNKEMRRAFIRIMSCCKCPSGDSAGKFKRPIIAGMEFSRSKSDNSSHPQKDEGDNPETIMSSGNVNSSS
Sequence of EDG5 (O95136 whole entry, species assumed): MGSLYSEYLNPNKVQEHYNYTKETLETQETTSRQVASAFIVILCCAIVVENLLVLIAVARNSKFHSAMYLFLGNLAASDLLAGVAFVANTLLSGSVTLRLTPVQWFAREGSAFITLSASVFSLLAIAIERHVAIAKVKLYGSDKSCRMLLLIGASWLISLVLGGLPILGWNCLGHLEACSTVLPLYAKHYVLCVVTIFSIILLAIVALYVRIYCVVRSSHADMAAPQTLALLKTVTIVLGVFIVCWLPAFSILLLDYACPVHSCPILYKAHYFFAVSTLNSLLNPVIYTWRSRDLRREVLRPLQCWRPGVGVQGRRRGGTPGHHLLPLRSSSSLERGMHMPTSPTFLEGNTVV

Structure (SMILES): Cl.O=C(O)C1(C(=O)O)CCN(Cc2ccc(-c3noc(-c4ccc(C5CCCCC5)cc4)n3)cc2)CC1 [Comparative example 8, reference compound]
ED50 (circulating lymphocytes [1]): 10 mg/kg

Structure (SMILES): CC(C)Cc1ccc(-c2nc(-c3ccc(CN4CCC(C)(C(=O)O)CC4)cc3)no2)cc1 [drawing 239]
lymphopenia (EDG1): 40% at 1 mg/kg

EC50 (EDG5): > 1000 nM | EC50 (EDG3): > 1000 nM | Cmax [3]: 843 ng/mL | AUC(0-t) [3]: 9240 ng·h/mL | EC50 (EDG-1 [4]; [6]): < 1 nM
Structure (SMILES): COCCOCC1(C(=O)O)CCN(Cc2ccc(-c3noc(-c4ccc(CC(C)C)c(Cl)c4)n3)cc2)CC1 [Example 14, 1-{4-[5-(3-chloro-4-isobutylphenyl)-[1,2,4]-oxadiazol-3-yl]benzyl}-4-(2-methoxyethoxymethyl)piperidine-4-carboxylic acid tert-butyl amine salt]
Lymphopenia in rats % lymphopenia at given dose at 24 hrs (circulating lymphocytes [2]; Wistar male): 72% (0.3 mpk) | Ki (hERG channel): > 10 µM | ED50 (circulating lymphocytes [1]): 0.2 mg/kg

EC50 (EDG3): 610 nM | EC50 (EDG-1 [4]; [6]): < 1 nM | EC50 (EDG-1 [4]; Table 1b, read-out: EDG1 EC50): < 1 nM
Structure (SMILES): COCC1(C(=O)O)CCN(Cc2ccc(-c3noc(-c4ccc(C5CCCCC5)c(Cl)c4)n3)cc2)CC1 [Example 10, 1-{4-[5-(3-chloro-4-cyclohexylphenyl)-[1,2,4]-oxadiazol-3-yl]benzyl}-4-methoxymethylpiperidine-4-carboxylic acid tert-butyl amine salt]
Ki (hERG channel): > 10 µM | ED50 (circulating lymphocytes [1]): 0.2 mg/kg

EC50 (EDG5): > 1000 nM | EC50 (EDG3): > 1000 nM | EC50 (EDG-1 [4]; [6]): < 1 nM | EC50 (EDG-1 [4]; Table 1b, read-out: EDG1 EC50): < 1 nM
Structure (SMILES): CC(C)Cc1ccc(-c2nc(-c3ccc(CN4CCC(CO)(C(=O)O)CC4)cc3)no2)cc1Cl [Example 15, 1-{4-[5-(3-chloro-4-isobutylphenyl)-[1,2,4]-oxadiazol-3-yl]benzyl}-4-hydroxymethylpiperidine-4-carboxylic acid tert-butyl amine salt]
Lymphopenia in rats % lymphopenia at given dose at 24 hrs (circulating lymphocytes [2]; Sprague-Dawley female): 69% (0.3 mpk) | Ki (hERG channel): > 10 µM

Structure (SMILES): CC(C)Cc1ccc(-c2nc(-c3ccc(CN4CCC(C(=O)O)(C(=O)O)CC4)cc3)no2)cc1 [Comparative example 7, reference compound]
ED50 (circulating lymphocytes [1]): 1.8 mg/kg

EC50 (EDG-1 [4]; Table 1b, read-out: EDG1 EC50): < 1 nM
Structure (SMILES): CC1(C(=O)O)CCN(Cc2ccc(-c3noc(-c4ccc(-c5ccccc5)c(Cl)c4)n3)cc2)CC1 [Example 8, 1-{4-[5-(2-Chlorobiphenyl-4-yl)-[1,2,4]-oxadiazol-3-yl]benzyl}-4-methylpiperidine-4-carboxylic acid]
ED50 (circulating lymphocytes [1]): 0.1 mg/kg

Structure (SMILES): Cl.O=C(O)C1(C(=O)O)CCN(Cc2ccc(-c3noc(-c4ccc(-c5ccccc5)c(F)c4)n3)cc2)CC1 [Comparative example 6, reference compound]
ED50 (circulating lymphocytes [1]): 0.4 mg/kg

IC50 (EDG-1 [5]): ~5 nM
Structure (SMILES): CCCCCCCCCCCCC/C=C/[C@@H](O)[C@@H](N)COP(=O)(O)O [Example S1P, sphingosine-1-phosphate]

Structure (SMILES): CCCCCCCCCCCCCCC[C@@H](O)[C@@H](N)COP(=O)(O)O [dihydroS1P]
IC50 (EDG-1 [5]): ~5 nM

Structure (SMILES): CC(C)Cc1ccc(-c2nc(-c3ccc(CN[C@H]4C[C@@H](C(=O)O)C4)cc3)no2)cc1 [Comparative example 9, reference compound]
ED50 (EDG1) (EDG1): Inactive at 1 mg/kg

Cmax [3]: 495 ng/mL | AUC(0-t) [3]: 4530 ng·h/mL
Structure (SMILES): CC(C)Cc1ccc(-c2nc(-c3ccc(CN4CC(C(=O)O)C4)cc3)no2)cc1 [Comparative compound 5, reference compound]

Cmax [3]: 798 ng/mL | AUC(0-t) [3]: 13100 ng·h/mL
Structure (SMILES): CC(C)Cc1ccc(-c2nc(-c3ccc(CN4CCC(C)(C(=O)O)CC4)cc3)no2)cc1Cl [Example 3, 1-{4-[5-(3-chloro-4-isobutylphenyl)-[1,2,4]-oxadiazol-3-yl]benzyl}-4-methylpiperidine-4-carboxylic acid]
ED50 (circulating lymphocytes [1]): 0.2 mg/kg
